Assays:
human TLR7 = biological target: T1, human TLR7 (Homo sapiens, UniProt Q9NYK1); assay: HEK293-Blue-hTLR-7 cells assay; assay type: cell-based; details: HEK293-Blue-hTLR7 cells, R848 stimulation, 20 hrs, SEAP reporter; read-out: HEK/hTLR7 IC50
T1 construct: host or cells: HEK293 (HEK-Blue hTLR7)
T1 sequence (Q9NYK1 27-1049): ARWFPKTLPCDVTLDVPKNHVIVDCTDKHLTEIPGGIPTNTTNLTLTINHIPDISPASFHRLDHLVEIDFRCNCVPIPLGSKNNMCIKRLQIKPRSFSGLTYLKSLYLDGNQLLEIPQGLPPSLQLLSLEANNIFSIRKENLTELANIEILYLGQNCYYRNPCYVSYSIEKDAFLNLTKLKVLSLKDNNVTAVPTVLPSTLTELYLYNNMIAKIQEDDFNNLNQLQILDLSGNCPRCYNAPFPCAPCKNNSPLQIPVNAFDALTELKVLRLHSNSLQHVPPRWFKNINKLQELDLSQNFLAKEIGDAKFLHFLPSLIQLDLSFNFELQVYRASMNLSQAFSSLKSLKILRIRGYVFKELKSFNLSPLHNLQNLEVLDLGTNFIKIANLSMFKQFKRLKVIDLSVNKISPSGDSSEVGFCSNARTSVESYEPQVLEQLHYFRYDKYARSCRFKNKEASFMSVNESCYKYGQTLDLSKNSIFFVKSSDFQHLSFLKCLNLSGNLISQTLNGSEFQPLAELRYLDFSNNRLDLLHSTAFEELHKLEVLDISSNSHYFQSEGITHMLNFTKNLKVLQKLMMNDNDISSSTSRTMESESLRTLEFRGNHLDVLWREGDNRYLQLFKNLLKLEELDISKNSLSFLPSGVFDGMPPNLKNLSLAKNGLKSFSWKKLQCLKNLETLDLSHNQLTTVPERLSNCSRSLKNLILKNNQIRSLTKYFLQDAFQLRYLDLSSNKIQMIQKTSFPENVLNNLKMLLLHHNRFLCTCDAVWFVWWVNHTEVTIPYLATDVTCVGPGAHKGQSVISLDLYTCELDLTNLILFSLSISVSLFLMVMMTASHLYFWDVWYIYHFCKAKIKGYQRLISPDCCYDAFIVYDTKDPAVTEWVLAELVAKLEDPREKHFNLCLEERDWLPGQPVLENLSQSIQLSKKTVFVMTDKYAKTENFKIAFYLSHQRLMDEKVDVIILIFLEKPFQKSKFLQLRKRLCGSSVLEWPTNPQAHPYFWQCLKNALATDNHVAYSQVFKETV
Text: HEK293-Blue-hTLR-7 cells assay:
A stable HEK293-Blue-hTLR-7 cell line was purchased from InvivoGen (Cat. #: hkb-htlr7, San Diego, Calif., USA). These cells were originally designed for studying the stimulation of human TLR7 by monitoring the activation of NF-κB. A SEAP (secreted embryonic alkaline phosphatase) reporter gene was placed under the control of the IFN-β minimal promoter fused to five NF-κB and AP-1-binding sites. The SEAP was induced by activating NF-κB and AP-1 via stimulating HEK-Blue hTLR7 cells with TLR7 ligands. Therefore the reporter expression was declined by TLR7 antagonist under the stimulation of a ligand, such as R848 (Resiquimod), for incubation of 20 hrs. The cell culture supernatant SEAP reporter activity was determined using QUANTI-Blue™ kit (Cat. #: rep-qb1, Invivogen, San Diego, Ca, USA) at a wavelength of 640 nm, a detection medium that turns purple or blue in the presence of alkaline phosphatase.
HEK293-Blue-hTLR7 cells were incubated at a density of 250,000-450,000 cells/mL in a volume of 170 μL in a 96-well plate in Dulbecco's Modified Eagle's medium (DMEM) containing 4.5 g/L glucose, 50 U/mL penicillin, […], […], 2 mM L-glutamine, 10% (v/v) heat-inactivated fetal bovine serum with addition of 20 μL test compound in a serial dilution in the presence of final DMSO at 1% and 10 μL of 20 uM R848 in above DMEM, perform incubation under 37° C. in a CO2 incubator for 20 hrs. Then 20 μL of the supernatant from each well was incubated with 180 μL Quanti-blue substrate solution at 37° C. for 2 hrs and the absorbance was read at 620˜655 nm using a spectrophotometer. The signaling pathway that TLR7 activation leads to downstream NF-κB activation has been widely accepted, and therefore similar reporter assay was modified for evaluating TLR7 antagonist.

hERG channel = biological target: T2, hERG channel (Homo sapiens, UniProt Q12809); assay: hERG channel inhibition assay (patch-clamp, CHOhERG cells); assay type: cell-based; details: for IC50 / IC20: CHOhERG cells, whole-cell patch-clamp; for IC20: human, CHO cells stably expressing hERG (CHOhERG cells); for hERG IC20/TLR7 IC50 / hERG IC20/TLR8 IC50 / hERG IC20/TLR9 IC50: safety ratio, >30 suggests sufficient window
T2 construct: expressed in transfected cells; host or cells: CHO (Chinese hamster ovary), CHOhERG
Method: hERG Channel Inhibition Assay:
The hERG K^+ channels were cloned in humans and stably expressed in a CHO (Chinese hamster ovary) cell line. CHOhERG cells were used for patch-clamp (voltage-clamp, whole-cell) experiments. Cells were stimulated by a voltage pattern to activate hERG channels and conduct hERG currents (rapid delayed outward rectifier potassium current of the hERG channel). After the cells were stabilized for a few minutes, the amplitude and kinetics of IKhERG were recorded at a stimulation frequency of 0.1 Hz (6 bpm). Thereafter, the test compound was added to the preparation at increasing concentrations. For each concentration, an attempt was made to reach a steady-state effect, usually, this was achieved within 3-10 min at which time the next highest concentration was applied. The amplitude and kinetics of IKhERG are recorded in each concentration of the drug which were compared to the control values (taken as 100%). (references: Redfern W S, Carlsson L, Davis A S, Lynch W G, MacKenzie I, Palethorpe S, Siegl P K, Strang I, Sullivan A T, Wallis R, Camm A J, Hammond T G. 2003; Relationships between preclinical cardiac electrophysiology, clinical QT interval prolongation and torsade de pointes for a broad range of drugs: evidence for a provisional safety margin in drug development. Cardiovasc. Res. 58:32-45, Sanguinetti MC, Tristani-Firouzi M. 2006; hERG potassium channels and cardiac arrhythmia. Nature 440:463-469, Webster R, Leishman D, Walker D. 2002; Towards a drug concentration effect relationship for QT prolongation and torsades de pointes. Curr. Opin. Drug Discov. Devel. 5:116-26).

T2 sequence (Q12809 whole entry): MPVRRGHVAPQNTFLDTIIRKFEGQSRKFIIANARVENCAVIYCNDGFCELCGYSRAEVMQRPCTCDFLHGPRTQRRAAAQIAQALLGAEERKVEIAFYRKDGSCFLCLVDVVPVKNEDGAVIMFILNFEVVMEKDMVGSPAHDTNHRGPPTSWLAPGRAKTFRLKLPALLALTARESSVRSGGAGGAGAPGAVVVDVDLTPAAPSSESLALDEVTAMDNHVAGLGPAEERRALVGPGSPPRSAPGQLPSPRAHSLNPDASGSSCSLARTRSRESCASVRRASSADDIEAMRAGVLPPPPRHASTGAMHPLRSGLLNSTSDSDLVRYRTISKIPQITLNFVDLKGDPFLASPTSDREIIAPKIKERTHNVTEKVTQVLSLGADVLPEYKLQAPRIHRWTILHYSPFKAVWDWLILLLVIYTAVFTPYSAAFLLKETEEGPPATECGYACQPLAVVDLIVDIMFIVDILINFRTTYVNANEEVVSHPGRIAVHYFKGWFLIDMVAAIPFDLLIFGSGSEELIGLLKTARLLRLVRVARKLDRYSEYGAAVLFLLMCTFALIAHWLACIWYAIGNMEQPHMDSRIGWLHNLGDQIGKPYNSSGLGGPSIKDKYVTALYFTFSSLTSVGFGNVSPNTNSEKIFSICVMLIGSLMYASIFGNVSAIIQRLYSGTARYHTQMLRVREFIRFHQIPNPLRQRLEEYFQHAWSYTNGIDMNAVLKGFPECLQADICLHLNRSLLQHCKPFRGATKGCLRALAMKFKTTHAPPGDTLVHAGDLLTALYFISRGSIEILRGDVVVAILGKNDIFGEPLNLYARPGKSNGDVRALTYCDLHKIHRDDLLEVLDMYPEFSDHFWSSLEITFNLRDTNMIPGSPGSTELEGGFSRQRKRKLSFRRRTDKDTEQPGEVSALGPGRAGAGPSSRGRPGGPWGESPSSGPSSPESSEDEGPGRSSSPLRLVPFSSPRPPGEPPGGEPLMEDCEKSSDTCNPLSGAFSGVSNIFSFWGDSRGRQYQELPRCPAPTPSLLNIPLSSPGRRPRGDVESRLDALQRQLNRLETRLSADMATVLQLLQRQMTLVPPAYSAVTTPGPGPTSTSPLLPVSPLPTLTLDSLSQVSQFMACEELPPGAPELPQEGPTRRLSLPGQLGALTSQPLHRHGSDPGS

Row | Compound | IC50 (human TLR7) [nM] | IC50 (hERG channel) [nM] | IC20 (hERG channel) [nM] | hERG IC20/TLR7 IC50 (hERG channel) | hERG IC20/TLR8 IC50 (hERG channel) | hERG IC20/TLR9 IC50 (hERG channel)
1 | Cc1nn(C2CN(C[C@H]3CN(c4ccc(C#N)c5ncccc45)C[C@@H](C)O3)C2)c2c1CNCC2 [Example 12, 5-[(2R,6S)-2-methyl-6-[[3-(3-methyl-4,5,6,7-tetrahydropyrazolo[4,3-c]pyridin-1-yl)azetidin-1-yl]methyl]morpholin-4-yl]quinoline-8-carbonitrile] | 15 | > 20000 | > 10000 | >666.7 | >226.8 | >127.6
2 | Cc1c2c(nn1C1CN(C[C@H]3CN(c4ccc(C#N)c5ncccc45)C[C@@H](C)O3)C1)CCNC2 [Example 13, 5-[(2R,6S)-2-methyl-6-[[3-(3-methyl-4,5,6,7-tetrahydropyrazolo[4,3-c]pyridin-2-yl)azetidin-1-yl]methyl]morpholin-4-yl]quinoline-8-carbonitrile] | 14 | > 20000 | > 10000 | >694.4 | >222.2 | >84.5
3 | C[C@@H]1CN(c2ccc(C#N)c3ncccc23)C[C@H](CN2CC(n3cc4c(n3)[C@@H](C)NCC4)C2)O1 (single isomer, unassigned) [Example 33] | 7 | > 20000 | > 10000 | >1369.9 | >763.4 | >291.5
4 | C[C@@H]1CN(c2ccc(C#N)c3ncccc23)C[C@H](CN2CC(n3cc4c(n3)CN[C@@H](C)C4)C2)O1 (single isomer, unassigned) [Example 29] | 8 | > 20000 | > 10000 | >1265.8 | >877.2 | >138.3
5 | C[C@@H]1CN(c2ccc(C#N)c3ncccc23)C[C@H](CN2CC(n3cc4c(n3)CCNC4)C2)O1 [Example 2, 5-[(2R,6S)-2-methyl-6-[[3-(4,5,6,7-tetrahydropyrazolo[4,3-c]pyridin-2-yl)azetidin-1-yl]methyl]morpholin-4-yl]quinoline-8-carbonitrile] | 25 | > 20000 | > 10000 | >403.5 | >538.4 | >151.6
6 | C[C@@H]1CN(c2ccc(C#N)c3ncccc23)C[C@H](CN2CC(n3ncc4c3CNCC4)C2)O1 [Example 3, 5-[(2R,6S)-2-methyl-6-[[3-(4,5,6,7-tetrahydropyrazolo[3,4-c]pyridin-1-yl)azetidin-1-yl]methyl]morpholin-4-yl]quinoline-8-carbonitrile] | 3 | > 20000 | > 10000 | >2901.3 | >1739.2 | >194.9
7 | C[C@@H]1Cc2c(cnn2C2CN(C[C@H]3CN(c4ccc(C#N)c5ncccc45)C[C@@H](C)O3)C2)CN1 [Example 16, 5-[(2R,6S)-2-methyl-6-[[3-[(6R)-6-methyl-4,5,6,7-tetrahydropyrazolo[4,3-c]pyridin-1-yl]azetidin-1-yl]methyl]morpholin-4-yl]quinoline-8-carbonitrile] | 4 | > 20000 | > 10000 | >2381.0 | >641.0 | >129.0
8 | C[C@@H]1Cc2cn(C3CN(C[C@H]4CN(c5ccc(C#N)c6ncccc56)C[C@@H](C)O4)C3)nc2CN1 (single isomer, unassigned) [Example 30] | 5 | > 20000 | > 10000 | >2083.3 | >735.3 | >175.7
9 | C[C@@H]1CN(c2ccc(C#N)c3ncccc23)C[C@H](CN2CC(n3ncc4c3CCNC4)C2)O1 [Example 1, 5-[(2R,6S)-2-methyl-6-[[3-(4,5,6,7-tetrahydropyrazolo[4,3-c]pyridin-1-yl)azetidin-1-yl]methyl]morpholin-4-yl]quinoline-8-carbonitrile] | 10 | > 20000 | > 10000 | >1023.8 | >584.4 | >174.0
10 | C[C@@H]1CN(c2ccc(C#N)c3ncccc23)C[C@H](CN2CC(n3cc4c(n3)CN(C)CC4)C2)O1 [Example 5, 5-[(2R,6S)-2-methyl-6-[[3-(6-methyl-5,7-dihydro-4H-pyrazolo[3,4-c]pyridin-2-yl)azetidin-1-yl]methyl]morpholin-4-yl]quinoline-8-carbonitrile] | 4 | > 20000 | > 10000 | >2857.1 | >1653.6 | >73.1
11 | C[C@@H]1CN(c2ccc(C#N)c3ncccc23)C[C@H](CN2CCC(n3cc4c(n3)CCNC4)CC2)O1 [Example 36, 5-[(2R,6S)-2-methyl-6-[[4-(4,5,6,7-tetrahydropyrazolo[4,3-c]pyridin-2-yl)-1-piperidyl]methyl]morpholin-4-yl]quinoline-8-carbonitrile] | 18 | > 20000 | 10000 | 566.6 | 246.7 | 180.7
12 | CCN1CCc2cnn(C3CN(C[C@H]4CN(c5ccc(C#N)c6ncccc56)C[C@@H](C)O4)C3)c2C1 [Example 6, 5-[(2S,6R)-2-[[3-(6-ethyl-5,7-dihydro-4H-pyrazolo[3,4-c]pyridin-1-yl)azetidin-1-yl]methyl]-6-methyl-morpholin-4-yl]quinoline-8-carbonitrile] | 12 |  |  |  |  | 
